From patent publication US9044526B2, “Medical product containing active component of propolis or grapefruit seed extract and manufacturing method thereof” (Korea Institute of Ceramic Engineering and Technology, priority 2011, dated 2015)

How the values were obtained:
[1] = tested on: Escherichia coli DH 5α (ATCC 25922); experiment: Antibacterial activity of impregnated multifilament, agar diffusion; type: cell-based; settings: contained in multifilament, treatment concentration 1000 ppm, 37.1° C., 24 hours, FIG. 8
Procedure: (§1) The antibacterial activity of the multifilament of Example containing the grapefruit seed extract and the active components (CAPE and pinocembrin) of propolis was tested. In the test, the cells of bacterial strains were grown in LB medium (peptone 10 g) by agar diffusion, and the growth of the bacterial strains was examined by UV-Vis spectroscopy. As the test strains, Staphylococcus aureus (ATCC 6538) and Escherichia coli DH 5α (ATCC 25922) were used. The bacterial cells were cultured at 37.1° C. for 24 hours, and then changes in the bacterial strains were measured. FIG. 8 is a set of photographs showing a comparison of antibacterial activity between a multifilament containing the grapefruit seed extract and a multifilament containing the active component (CAPE) of propolis. […] In FIG. 8, 1: a control group, 2 to 6: samples impregnated with a solution of CAPE and the grapefruit seed extract; a: a sample treated with Staphylococcus aureus; b: a sample treated with Escherichia coli DH 5α. In the photograph of FIG. 8, the treatment concentration is 1000 ppm. […] Although a lower concentration of the antibacterial material is contained in the multifilament, it is considered that the test should be carried out at 1000 ppm, because the concentration of the antibacterial material in the multifilament will be excessively low when the test is carried out at a lower concentration. […]

[2] = tested on: Staphylococcus aureus (ATCC 6538); experiment: as above; type: cell-based; settings: contained in multifilament, treatment concentration 1000 ppm, 37.1° C., 24 hours, FIG. 8
Procedure: as §1

[3] = Drug release of impregnated multifilament in 0.01M PBS; type: physicochemical; settings: release from multifilament impregnated with 1000 ppm solution; 0.01M PBS pH 7.4, 37, examined 0-100 hours
Procedure: In order to examine the […] drug release of each of the multifilament samples impregnated with CAPE and GSE for 440 min and pinocembrin for 720 min in Example 3, the following test was performed. As a solvent for use in this release test, 0.01M PBS (by phosphate buffer calculator, monobasic monohydrate: 1.1832 g, and dibasic ACS reagent: 8.1572 g) was prepared and adjusted to a pH of 7.4. After standard curves of FIGS. 5A, 5B and 5C for the grapefruit seed extracts and CAPE and pinocembrin (the active components of propolis) were plotted, and then tests for the materials were performed at the respective concentrations. The standard curves for the functional materials were obtained by measuring the absorbance using JASCO V-550 UV-Vis Spectrometer (Wavelength Range: 200-900 nm; Bandwidth Selectable: 0.5 nm; Scanning Speed: 400 nm/min; Data Pitch: 1 nm). The standard curve equations shown in FIGS. 5A (CAPE), 5B (Pinocembrin) and 5C (grapefruit seed extract) are as follows: y=0.126x+0.022 CAPE (1) y=0.051x+0.021 Pinocembrin (2) y=0.002x−0.035 Grapefruit seed extract (3) wherein x is the concentration of each functional material, and y is the absorbance of each functional material. […]

[4] = Degradation behavior of PGLA multifilament in PBS solution; type: physicochemical
Description: FIG. 9 is a photograph showing the results of observing the degradation behavior of 0.1 g of the PGLA multifilament in PBS solution (pH7.4; similar to the human body) for 0 day, 10 days and 2 months. […] Also, it can be seen that the grapefruit seed extract and CAPE or pinocembrin which is the active component of propolis have no effect on the degradation of the multifilament.

Compound | antibacterial activity [1] | antibacterial activity [2] | time at which drug release behavior was completed [3] | effect on the degradation of the multifilament ([4]; pH 7.4) | degradation of the multifilament ([4]; pH 7.4) | effect on the degradation of the multifilament ([4]; PBS solution pH7.4, 0 day, 10 days and 2 months, FIG. 9)
O=C(/C=C/c1ccc(O)c(O)c1)OCCc1ccccc1 [CAPE, caffeic acid phenethyl ester] | showed antibacterial activity | showed antibacterial activity | ≤ 64 h | no effect |  | 
poly(glycolide-co-L-lactide) [PGLA multifilament] |  |  |  |  | significantly rapid | 
O=C1CC(c2ccccc2)Oc2cc(O)cc(O)c21 (stereo not shown) [pinocembrin] |  |  | ≤ 60 h |  |  | no effect
